The record followed here is patent US4908384A, “Fatty acid leukotriene synthesis inhibitors” (McNeilab, Inc., priority 1986, dated 1990).

SMILES strings stand for the structures.

Assay [1] has as its system guinea pig lung parenchymal tissue. Briefly: Immunologically Mediated Contraction of the Parenchymal Strip (IMCPS). The class given is cell-based. Conditions: Cavia porcellus, inhibition of egg albumin-induced contraction of sensitized guinea pig lung strip, 30 min preincubation, chlorpheniramine 10 μM and indomethacin 100 μM present, active if >=15%, read-out: IMCPS % Inhib @ 100 μM. As for the experimental part:
(a) Immunogically Mediated Contraction of the Parenchymal Strip (IMCPS)
It is a modification of the procedure published by K. Forsberg and L. Sorenby in Agents and Actions, Vol. 9 pp. 364-368 (1978). In this test, male Hartley strain guinea pigs weighting 400 to 600 g were sensitized by subcutaneous administration of chicken egg albumin (Sigma A-5503, 1.0 mg, 0.5% solution) and bordetella pertussis, 11×10^9 cells (MassachusettsPublic health Biological Labs) 4 to 8 weeks prior to the experiment. The animals were sacrificed, the heart and lungs were removed en bloc and placed in Krebs solution at room temperature. Lung strips (2.5 cm in length) were cut from the perihperal edge of each lobe. Two strips were removed from each animal and were trimmed to be of equal length. Each strip was suspended in an isolated organ bath (10.0 ml) containing oxygenated Krebs buffer solution at 37.5° C. then attached to a force displacement transducer (Grass FTO3) and placed under an initial tension of 1.0 g. The tissues were allowed to equilibrate for 45-60 min, during which the bathing solution was changed several times. At the end of the equilbration period, chlorpheniramine (10.0μM) and indomethacin (100.0μM) were added to eliminate the contribution of histamine and prostaglandins to the contractile response. The two tissues from each animal were matched so that one tissue served as a control and the test drug dissolved in DMSO was added to the bath containing the other tissue at a final concentration of 100μM. After 30 min, egg albumin was added to each bath and the contractile response was measured as milligrams of tension developed as recorded on a Grass Model 7D polygraph.
(§1) The results of the IMCPS and the HGALP tests, employing the administration of various illustrative compounds of the present invention, are shown in Table I. The compounds are of the formula (I) wherein R^1, R^2, R^3, A and Y are as shown, R^4 and R^5 are hydrogen and k is 3.

Another assay relates to human granulocyte cells. The assay is described as follows: Human granulocyte Assay for Lipoxygenase Products (HGALP). The class given is cell-based. The note with it: inhibition of [3H]-lipoxygenase metabolite release; human granulocytes prelabeled with [3H]-arachidonic acid, 10 μM ionophore A23187, 14 μM indomethacin. On the procedure:
(b) Human granulocyte Assay for Lipoxygenase Products (HGALP)
This test is a measurement of the inhibition of the synthesis or relase of [3H]-labeled lipoxygenase metabolites released or generated from human granulocyte cells that are prelabeled with [3H]-arachidonic acid. These metabolites include the leukotrienes (e.g., LTB4) which are potent mediators of inflammation and allergy. In this test, a granulocyte enriched fraction is prepared from freshly drawn human blood (50 ml/donor) by standard techniques involving unit gravity separation on ficoll hypaque. […] After washing out unincorporated label, the radiolabeled cells are brought up in incubation buffer (Minimum Essential Medium containing 14 μM indomethacin) to a 10^7 cell/ml concentration. […] Cell suspensions are challeged with 10 μM ionophore A23187 to […], incubations are terminated by the addition of 1 ml ice cold phosphate buffered saline, and cells are pelleted by centrifugation. Supernatants are passed through C18 Sep Pak® cartridges which are then washed twice with 1 ml water. Lipoxygenase metabolites are eluted with two 1 ml volumes of methanol. Eluates are collected in scintillation vials and counted in Aqueous Counting Scintillant (ACS). Radioactivity eluted with methanol is a measure of lipoxygenase metabolites. Values are normalized to vehicle (5 μl DMSO) treated controls and expressed as percent inhibition. Triplicate determinations at each drug concentration are analyzed as log-dose response curves by linear regression analysis from which IC50 values are derived.
as §1

With `CCCCCCCCCCCCC(O)CC#CCCCC(=O)O` (stereo not shown) [Example 1d, 8-Hydroxy-5-eicosynoic acid], the inhibition at 100 µM in assay [1] was 20 to 43%. For the same compound, the IC50 (usually the concentration that gives 50% inhibition) with human granulocyte cells is 12 µM.
On the same counts, the results for `CCCCCCCCCCCCC(O)C/C=C\CCCC(=O)O` (stereo not shown) [Example 2, 8-Hydroxy-5(Z)-eicosenoic Acid] are 19% and 7.5 µM.
Consider `CCCCCCCCCCCCC(=O)C/C=C\CCCC(=O)O` [Example 3, 8-oxo-5-(Z)-eicosenoic Acid], for which the inhibition at 100 µM in assay [1] worked out at 24%. Further, the IC50 in the assay on human granulocyte cells worked out at 13 µM.
Taken in the same sequence, the figures for `CCCCCCCCCCCCC(=O)CC#CCCCC(=O)O` [Example 4, 8-Oxo-5-eicosynoic Acid] were 22% and 4.9 µM.
Taken in the same sequence, the figures for `O=C(O)CCCC#CCC(O)CCc1ccccc1` (stereo not shown) [Example 5, 8-Hydroxy-10-phenyl-5-decynoic Acid Hydrate (10:1)] were 9 to 14% and 14.2 µM.
Consider `O=C(O)CCC/C=C\CC(O)CCc1ccccc1` (stereo not shown) [Example 6, 8-Hydroxy-10-phenyl-5(Z)-decenoic Acid], for which, in assay [1], the inhibition at 100 µM came out at 9%. In addition, the half-inhibitory concentration (IC50) in the assay with human granulocyte cells is 13 µM.
For `CCCCCc1ccc(OCC(O)CC#CCCCC(=O)O)cc1` (stereo not shown) [Example 7b, 8-Hydroxy-9(4-pentylphenoxy)-5-nonynoic acid], the inhibition at 100 µM in assay [1] was 29%. Also, the IC50 in the assay with human granulocyte cells was found to be 12 µM.
On to `CCCCCc1ccc(OCC(O)CC#CCCCC(=O)OC)cc1` (stereo not shown) [Example 8, Methyl 8-Hydroxy-9-(4-pentylphenoxy)-5-nonynoate], for which the inhibition at 100 µM in assay [1] is 14%. Moreover, in the assay with human granulocyte cells, the half-maximal inhibitory concentration (IC50) is 8 µM.
Taken in the same sequence, the figures for `CCCCCc1ccc(OCC(O)C/C=C\CCCC(=O)OC)cc1` (stereo not shown) [Example 9, Methyl 8-Hydroxy-9-(4-pentylphenoxy)-5(Z)-nonenoate] were 0% and 14 µM.
On the same counts, the results for `CCCCCc1ccc(OCC(O)C/C=C\CCCC(=O)O)cc1` (stereo not shown) [Example 10, 8-Hydroxy-9-(4-pentylphenoxy)-5-(Z)-nonenoic acid] are 28.5% and 1.1 to 9.5 µM.
Taken in the same sequence, the figures for `CCCCCc1ccc(OCC(C/C=C\CCCC(=O)OC)SC(C)=O)cc1` (stereo not shown) [Example 11, Methyl 8-(Acetylthio)-9-(4-pentylphenoxy)-5-(Z)-nonenoate] were 3% and 8.5 µM.
Take `CCCCCc1ccc(OCC(S)CC#CCCCC(=O)O)cc1` (stereo not shown) [Example 12b, 8-Mercapto-9-(4-pentylphenoxy)-5-nonynoic acid]: the inhibition at 100 µM in assay [1] came to 29%. In addition, in the assay on human granulocyte cells, the 50% inhibitory concentration (IC50) was 13 µM.
On the same counts, the results for `CCCCCc1ccc(OCC(O)CCCCCCC(=O)O)cc1` (stereo not shown) [Example 13, 8-Hydroxy-9-(4-pentylphenoxy)nonanoic Acid] are 6% and 2.3 µM.
On the same counts, the results for `CCCCCOc1ccc(OCC(O)CC#CCCCC(=O)O)cc1` (stereo not shown) [Example 14b, 8-Hydroxy-9-(4-pentoxyphenoxy)-5-nonynoic acid] are 0 to 30% and 33 µM.
